US10485236B2, “Triazole derivatives, intermediates thereof and their use as fungicides” (Bayer CropScience Aktiengesellschaft, priority 2015, dated 2019)
Marks after values point to notes of the source that are not given here.

Test: Measurement of LogP values by HPLC on reversed phase columns (EEC directive 79/831 Annex V.A8)
Format: physicochemical
Experimental: [table] If more than one Log P value is available within the same method, all the values are given and separated by “+”. Calibration was done with straight-chain alkan2-ones (with 3 to 16 carbon atoms) with known Log P values (measurement of Log P values using retention times with linear interpolation between successive alkanones). Lambda-max-values were determined using UV-spectra from 200 nm to 400 nm and the peak values of the chromatographic signals.

Compound	LogP	chromatographic logP (reversed phase HPLC column, method [a]: LC-UV, acidic range, 0.1% formic acid in water and acetonitrile as eluent)
CC(=O)c1ccc(Oc2ccc(C(F)F)cc2)nc1Cl [V.14]	3.15^[a]	–
CC(O)(Cn1cncn1)c1ccc(Oc2ccc(Cl)cc2)nc1OC(F)(F)F (racemic) [I.33]	3.29^[a]	–
OC(Cn1cncn1)c1ccc(Oc2ccc(S(F)(F)(F)(F)F)cc2)nc1Cl (racemic) [I.34]	2.90^[a]	–
OC(Cn1cncn1)c1ccc(Oc2ccc(C(F)(F)F)cc2)nc1C(F)(F)F (single isomer, unassigned) [I.72]	2.86^[a]	–
OC(Cn1cncn1)c1ccc(Oc2ccc(F)cc2F)nc1Cl (racemic) [I.18]	2.18^[a]	–
CC(=O)c1ccc(Oc2ccc(Br)cc2)nc1C(F)(F)F [V.20]	3.85^[a]	–
CCC(O)(Cn1cncn1)c1ccc(Oc2ccc(Cl)cc2)nc1C(F)(F)F (stereo not shown) [I.103]	3.19^[a]	–
CC(=O)c1cnc(Oc2ccc(S(F)(F)(F)(F)F)cc2)cc1C(F)(F)F [V.03]	4.32^[a]	–
OC(Cn1cncn1)c1ccc(Oc2ccc(Cl)cc2)nc1F (stereo not shown) [I.41]	2.23^[a]	–
OC(Cn1cncn1)c1ccc(Oc2ccc(OC(F)(F)F)c(Cl)c2)nc1Cl (racemic) [I.11]	3.11^[a]	–
Cc1cc(Cl)ccc1Oc1ccc(C(O)Cn2cncn2)c(Cl)n1 (racemic) [I.15]	2.75^[a]	–
CCC(O)(Cn1cncn1)c1cnc(Oc2ccc(C(F)(F)F)cc2)cc1C(F)(F)F (stereo not shown) [I.76]	3.52^[a]	–
OC(Cn1cncn1)c1ccc(Oc2ccc(S(F)(F)(F)(F)F)cc2)nc1C(F)(F)F (stereo not shown) [I.60]	3.08^[a]	–
CC(=O)c1ccc(Oc2ccc(Cl)cc2)nc1F [V.24]	3.51^[a]	–
CC(O)(Cn1cncn1)c1cnc(Oc2ccc(S(F)(F)(F)(F)F)cc2)cc1C(F)(F)F (stereo not shown) [I.37]	3.33^[a]	–
CC(=O)c1ccc(Oc2ccc(Cl)cc2)nn1 [V.13]	2.73^[a]	–
CC(=O)c1cnc(Oc2ccc(Cl)cc2)cc1C(F)(F)F [V.02, 1-[6-(4-chlorophenoxy)-4-(trifluoromethyl)-3-pyridyl]ethanone]	–	3.89
CC(=O)c1ccc(Oc2ccc(C(F)(F)F)cc2)nc1C(F)(F)F [V.17]	3.96^[a]	–
CC(O)(Cn1cncn1)c1ccc(Oc2ccc(Cl)cc2)nc1C(F)(F)F (stereo not shown) [I.67]	2.68^[a]	–
CC(O)(Cn1cncn1)c1cnc(Oc2ccc(Cl)cc2)cc1Cl (racemic) [I.08]	2.50^[a]	–
CC(O)(Cn1cncn1)c1cnc(Oc2ccc(C(F)(F)F)cc2)cc1C(F)(F)F (stereo not shown) [I.50]	3.11^[a]	–
CC(O)(Cn1cncn1)c1ccc(Oc2ccc(Cl)cc2)nc1F (stereo not shown) [I.42]	2.46^[a]	–
CC(O)(Cn1cncn1)c1ccc(Oc2ccc(F)cc2)nc1Oc1ccc(F)cc1 (stereo not shown) [I.77]	3.13^[a]	–
OC(Cn1cncn1)c1ccc(Oc2ccc(Cl)cc2F)nc1C(F)(F)F (stereo not shown) [I.70]	2.78^[a]	–
CC(=O)c1ccc(Oc2ccc(Br)cc2)nc1C(F)F [V.34]	3.46^[a]	–
OC(Cn1cncn1)(c1ccc(Oc2ccc(Cl)cc2)nc1C(F)(F)F)C1CC1 (stereo not shown) [I.71]	3.35^[a]	–
OC(Cn1cncn1)c1cnc(Oc2ccc(C(F)(F)F)cc2)cc1Cl (stereo not shown) [I.88]	2.64^[a]	–

Compound	LogP	chromatographic logP (reversed phase HPLC column, method [a]: LC-UV, acidic range, 0.1% formic acid in water and acetonitrile as eluent)
OC(Cn1cncn1)c1ccc(Oc2ccc(C(F)F)cc2)nc1C(F)(F)F (stereo not shown) [I.74]	2.49^[a]	–
FC(F)(F)c1nc(Oc2ccc(S(F)(F)(F)(F)F)cc2)ccc1C1(C2CC2)CO1 (stereo not shown) [IX.09]	5.22^[a]	–
OC(Cn1cncn1)c1cnc(Oc2ccc(C(F)(F)F)cc2)cc1C(F)(F)F (single isomer, unassigned) [I.92]	2.86^[a]	–
CC(O)(Cn1cncn1)c1cnc(Oc2ccc(Cl)cc2F)cc1C(F)(F)F (stereo not shown) [I.58]	3.02^[a]	–
CC(O)(Cn1cncn1)c1cnc(Oc2ccc(C(F)F)cc2)cc1C(F)(F)F (stereo not shown) [I.56]	2.73^[a]	–
Cc1cc(Cl)ccc1Oc1ccc(C(C)(O)Cn2cncn2)c(Cl)n1 (racemic) [I.28]	2.94^[a]	–
FC(F)(F)c1nc(Oc2ccc(Br)cc2)ccc1C1(C2CC2)CO1 (stereo not shown) [IX.08]	5.11^[a]	–
CC(O)(Cn1cncn1)c1ccc(Oc2ccc(Cl)cc2)nc1Cl (single isomer, unassigned) [I.52]	2.62^[a]	–
CC(O)(Cn1cncn1)c1ccc(Oc2ccc(Cl)cc2)nc1Cl (racemic) [I.09]	2.66^[a]	–
CC(=O)c1cnc(Oc2ccc(Br)cc2)cc1C(F)(F)F [V.27]	3.99^[a]	–
COc1ccc(Oc2ccc(C(C)(O)Cn3cncn3)c(Cl)n2)c(Cl)c1 (racemic) [I.31]	2.56^[a]	–
COc1ccc(Oc2ccc(C(C)=O)c(Cl)n2)c(Cl)c1 [V.29]	3.44^[a]	–
OC(Cn1cncn1)(c1ccc(Oc2ccc(Br)cc2)nc1C(F)(F)F)C1CC1 (single isomer, unassigned) [I.99]	3.41^[a]	–
CC(=O)c1ccc(Oc2ccc(S(F)(F)(F)(F)F)cc2)nc1Cl [V.30]	3.99^[a]	–
CC(O)(Cn1cncn1)c1cnc(Oc2ccc(Cl)cc2)cc1Cl (single isomer, unassigned) [I.53]	2.53^[a]	–
CC(=O)c1ccc(Oc2ccc(OC(F)(F)F)cc2)nc1Cl [V.28]	3.89^[a]	–
CC(O)(Cn1cncn1)c1cnc(Oc2ccc(Cl)cc2)cc1Cl (single isomer, unassigned) [I.54]	2.53^[a]	–
CC(O)(Cn1cncn1)c1ccc(Oc2ccc(Cl)cc2F)nc1C(F)(F)F (stereo not shown) [I.89]	3.15^[a]	–
OC(Cn1cncn1)c1ccc(Oc2ccc(Cl)cc2)nc1OC(F)(F)F (racemic) [I.26]	2.92^[a]	–
OC(Cn1cncn1)c1ccc(Oc2ccc(Cl)c(Cl)c2)nc1Cl (racemic) [I.10]	2.80^[a]	–
COc1ccc(Oc2ccc(C(O)Cn3cncn3)c(Cl)n2)c(Cl)c1 (racemic) [I.30]	2.32^[a]	–
CC(O)(Cn1cncn1)c1cnc(Oc2ccc(Cl)cc2)cc1C(F)F (stereo not shown) [I.64]	2.68^[a]	–
OC(Cn1cncn1)c1cnc(Oc2ccc(OC(F)(F)F)cc2)cc1C(F)(F)F (stereo not shown) [I.43]	3.00^[a]	–
CC(=O)c1cnc(Oc2ccc(C(F)F)cc2)cc1C(F)(F)F [V.04]	3.62^[a]	–
CC(=O)c1ccc(Oc2c(F)cc(Cl)cc2F)nc1C(F)(F)F [V.31]	4.06^[a]	–
OC(Cn1cncn1)c1cnc(Oc2ccc(Cl)cc2)cc1Cl (stereo not shown) [I.68]	2.48^[a]	–

Other lines, results leading:

LogP	chromatographic logP (reversed phase HPLC column, method [a]: LC-UV, acidic range, 0.1% formic acid in water and acetonitrile as eluent)	Compound
4.15^[a]	–	O=C(CCl)c1cnc(Oc2ccc(Cl)cc2F)cc1C(F)(F)F [VI.25]
2.96^[a]	–	O=C(Cn1cncn1)c1ccc(Oc2c(F)cc(Cl)cc2F)nc1C(F)(F)F [VII.33]
3.99^[a]	–	O=C(CBr)c1cnc(Oc2ccc(C(F)F)cc2)cc1C(F)(F)F [VI.27]
3.11^[a]	–	O=C(Cn1cncn1)c1ccc(Oc2ccc(S(F)(F)(F)(F)F)cc2)nc1Cl [VII.20]
4.34^[a]	–	O=C(CBr)c1cnc(Oc2ccc(Cl)cc2F)cc1C(F)(F)F [VI.24]
2.45^[a]	–	O=C(Cn1cncn1)c1ncc(Oc2ccccc2)cc1Cl [VII.07]
2.95^[a]	–	O=C(Cn1cncn1)c1ccc(Oc2ccc(OC(F)(F)F)cc2)nc1Cl [VII.08]
2.21^[a]	–	O=C(Cn1cncn1)c1ccc(Oc2ccccc2)nc1Cl [VII.06]
3.76^[a]	–	O=C(CCl)c1cnc(Oc2ccc(C(F)F)cc2)cc1C(F)(F)F [VI.26]
3.06^[a]	–	O=C(Cn1cncn1)c1ccc(Oc2ccc(Cl)c(Cl)c2)nc1Cl [VII.03]
4.23^[a]	–	O=C(CBr)c1ccc(Oc2ccc(Br)cc2)nc1C(F)(F)F [VI.18]
5.03^[a]	–	CCCCC(=O)c1ccc(Oc2ccc(Cl)cc2)nc1C(F)(F)F [V.48]
2.50^[a]	–	O=C(Cn1cncn1)c1ccc(Oc2ccc(Cl)cc2)nc1F [VII.25]
3.21^[a]	–	O=Cc1ccc(Oc2ccc(C(=O)C3CC3)c(C(F)(F)F)n2)cc1 [V.42]
3.77^[a]	–	O=C(CCl)c1cnc(Oc2ccc(Cl)cc2)cc1Cl [VI.06]
2.41^[a]	–	O=C(Cn1cncn1)c1ccc(Oc2ccc(F)cc2F)nc1Cl [VII.13]
2.20^[a]	–	O=C(Cn1cncn1)c1cnc(Oc2ccccc2)cc1Cl [VII.05]
2.54^[a]	–	O=C(Cn1cncn1)c1ncc(Oc2ccc(Cl)cc2)nc1Cl [VII.23]

LogP	chromatographic logP (reversed phase HPLC column, method [a]: LC-UV, acidic range, 0.1% formic acid in water and acetonitrile as eluent)	Compound
3.71^[a]	–	COc1ccc(Oc2ccc(C(=O)CCl)c(Cl)n2)c(Cl)c1 [VI.13]
3.17^[a]	–	O=C(Cn1cncn1)c1cnc(Oc2ccc(C(F)(F)F)cc2)cc1C(F)(F)F [VII.28]
3.44^[a]	–	CC(C)c1ccc(Oc2ccc(C(=O)Cn3cncn3)c(C(F)(F)F)n2)cc1 [VII.34]
3.72^[a]	–	O=C(CCl)c1ccc(Oc2ccc(Cl)cc2)nc1Cl [VI.04]
4.18^[a]	–	O=C(CBr)c1ccc(Oc2c(F)cc(Cl)cc2F)nc1C(F)(F)F [VI.32]
3.42^[a]	–	O=C(CCl)c1ccc(Oc2ccc(C(F)F)cc2)nc1Cl [VI.16]
3.50^[a]	–	O=C(CCl)c1ccc(Oc2ccc(C(F)F)cc2)nc1C(F)(F)F [VI.36]
4.21^[a]	–	O=C(CCl)c1ccc(Oc2ccc(S(F)(F)(F)(F)F)cc2)nc1Cl [VI.30]
4.34^[a]	–	O=C(CBr)c1cnc(Oc2ccc(Br)cc2)cc1C(F)(F)F [VI.15]
2.94^[a]	–	Cc1cc(Cl)ccc1Oc1ccc(C(=O)Cn2cncn2)c(Cl)n1 [VII.10]
1.96^[a]	–	CC(=O)c1ccc(Oc2ccc(C(=O)Cn3cncn3)c(Cl)n2)cc1 [VII.17]
3.23^[a]	–	O=C(Cn1cncn1)c1ccc(Oc2ccc(Cl)cc2)nc1OC(F)(F)F [VII.18]
4.11^[a]	–	O=C(CCl)c1ccc(Oc2ccc(Cl)cc2F)nc1C(F)(F)F [VI.35]
4.21^[a]	–	O=C(CCl)c1cnc(Oc2ccc(C(F)(F)F)cc2)cc1C(F)(F)F [VI.22]
3.35^[a]	–	O=C(Cn1cncn1)c1cnc(Oc2ccc(S(F)(F)(F)(F)F)cc2)cc1C(F)(F)F [VII.21]
2.30^[a]	–	O=C(Cn1cncn1)c1ccc(Oc2ccc(F)cc2)nc1Cl [VII.12]
2.95^[a]	–	O=C(Cn1cncn1)c1ccc(Oc2ccc(OC(F)(F)F)cc2)nc1C(F)(F)F [VII.39]
